According to PubChem BioAssay AID274 (DTP/NCI, 2004):
Toxic doses and inconclusive results are not listed. Rule for the calls: active = survival T/C of 150% or more; inactive = T/C below 125% in these data. Numbered stars: 1 amine (or outer) side, 2 acyl side, 3 side chain; on linkers, the order of the positions; unused ones are H or OH. Square brackets hold non-standard residues; d marks the D form. Peptide text beside a SMILES is read from it. * marks the point of attachment. X2 = CCC(=O)CC1CC(C)CC(C(=O)[*:2])N1[*:1]; X1 = CCCCCCCCC(C)C(=O)*; Aib = CC(C)(N)C(=O)O; X3 = CC(CN(C)CCO)N*

Test system: BDF1 mice, Lewis lung carcinoma iv, survival T/C
Assay: NCI In Vivo Anticancer Drug Screen. Data for tumor model Lewis Lung Carcinoma (intravenous) in B6D2F1 (BDF1) mice
Details: endpoint: median survival time, higher = longer survival
Method: The antitumor activity of compounds was measured in mice bearing transplantable tumors. Survival or tumor size were measured and the results are expressed as the measurement made in the treated group (T) divided by the measurement made in the vehicle treated control group (C). The tumor model used in this assay is Lewis Lung Carcinoma (intravenous) in B6D2F1 (BDF1) mice

[1] = dose: 100.0 mg/kg/injection, schedule: Q01DX009 (ip), vehicle: saline with Tween-80
[2] = dose: 200.0 mg/kg/injection, schedule: Q01DX009 (ip), vehicle: saline with Tween-80
[3] = dose: 400.0 mg/kg/injection, schedule: Q01DX009 (ip), vehicle: saline with Tween-80
[4] = dose: 12.5 mg/kg/injection, schedule: Q01DX009 (ip), vehicle: saline
[5] = dose: 25.0 mg/kg/injection, schedule: Q01DX009 (ip), vehicle: saline
[6] = dose: 0.31 mg/kg/injection, schedule: Q01DX009 (ip), vehicle: Klucel (hydroxypropylcellulose) (HPC)
[7] = dose: 1.25 mg/kg/injection, schedule: Q01DX009 (ip), vehicle: Klucel (hydroxypropylcellulose) (HPC)
[8] = dose: 2.5 mg/kg/injection, schedule: Q01DX009 (ip), vehicle: Klucel (hydroxypropylcellulose) (HPC)
[9] = dose: 5.0 mg/kg/injection, schedule: Q01DX009 (ip), vehicle: Klucel (hydroxypropylcellulose) (HPC)
[10] = dose: 6.25 mg/kg/injection, schedule: Q01DX009 (ip), vehicle: Klucel (hydroxypropylcellulose) (HPC)
[11] = dose: 12.5 mg/kg/injection, schedule: Q01DX009 (ip), vehicle: Klucel (hydroxypropylcellulose) (HPC)
[12] = dose: 25.0 mg/kg/injection, schedule: Q01DX009 (ip), vehicle: Klucel (hydroxypropylcellulose) (HPC)
[13] = dose: 50.0 mg/kg/injection, schedule: Q01DX009 (ip), vehicle: Klucel (hydroxypropylcellulose) (HPC)
[14] = dose: 1.56 mg/kg/injection, schedule: Q01DX009 (ip), vehicle: saline with Tween-80
[15] = dose: 12.5 mg/kg/injection, schedule: Q01DX009 (ip), vehicle: saline with Tween-80
[16] = dose: 50.0 mg/kg/injection, schedule: Q01DX009 (ip), vehicle: saline
[17] = dose: 100.0 mg/kg/injection, schedule: Q01DX009 (ip), vehicle: saline
[18] = dose: 200.0 mg/kg/injection, schedule: Q01DX009 (ip), vehicle: saline

Measured: T/C

O=C(O)c1ccc(C(=O)O)c(C(=O)O)c1.[NH-]C1CCCCC1[NH-].[Pt+2]
inactive: dose: 0.39 mg/kg/injection, schedule: Q01DX009 (ip), vehicle: sodium bicarbonate 90 % of control | dose: 0.78 mg/kg/injection, schedule: Q01DX009 (ip), vehicle: sodium bicarbonate 100 % of control | dose: 1.56 mg/kg/injection, schedule: Q01DX009 (ip), vehicle: sodium bicarbonate 112 % of control | dose: 3.12 mg/kg/injection, schedule: Q01DX009 (ip), vehicle: sodium bicarbonate 122 % of control

O=C1OC(c2ccc(O)cc2)(c2ccc(Oc3ccccc3)cc2)c2ccccc21 (stereo not given)
inactive: [1] 105 % of control | [2] 112 % of control | [3] 99 % of control

CCOC(=O)C(N)C[S][Sn]([CH3])([CH3])[Cl] (stereo not given)
inactive: dose: 6.25 mg/kg/injection, schedule: Q01DX009 (ip), vehicle: saline 100 % of control | [4] 102 % of control | [5] 95 % of control

O=C(O)CC(=O)O.[NH-]C1CCCCC1[NH-].[Pt+2] (stereo not given)
inactive: dose: 12.5 mg/kg/injection, schedule: Q01DX009 (ip), vehicle: dextrose 117 % of control | dose: 25.0 mg/kg/injection, schedule: Q01DX009 (ip), vehicle: dextrose 88 % of control

C[C@]12CC[C@H]3[C@@H](CCC4=C[C@@H](OC5OCC(OC6OC(CO)C(O)C(O)C6O)C(O)C5O)CC[C@@]43C=O)[C@@]1(O)CCC2C1=CC(=O)OC1 (stereo not given in full)
inactive: dose: 0.16 mg/kg/injection, schedule: Q01DX009 (ip), vehicle: Klucel (hydroxypropylcellulose) (HPC) 99 % of control | [6] 100 % of control | dose: 0.63 mg/kg/injection, schedule: Q01DX009 (ip), vehicle: Klucel (hydroxypropylcellulose) (HPC) 102 % of control | [7] 99 % of control | [8] 122 % of control | [9] 122 % of control

O=C(Nc1ccc(N=C=S)cc1Cl)c1cc(Cl)cc(Cl)c1O
inactive: [10] 97 % of control | [11] 97 % of control | [12] 105 % of control | [13] 116 % of control

Cc1ccc2c(c1)C(=O)N(CC[P+](c1ccccc1)(c1ccccc1)c1ccccc1)C2=O
inactive: dose: 0.78 mg/kg/injection, schedule: Q09DX009 (ip), vehicle: water 98 % of control | dose: 1.56 mg/kg/injection, schedule: Q09DX009 (ip), vehicle: water 89 % of control | dose: 3.12 mg/kg/injection, schedule: Q09DX009 (ip), vehicle: water 89 % of control | dose: 6.25 mg/kg/injection, schedule: Q09DX009 (ip), vehicle: water 87 % of control | dose: 12.5 mg/kg/injection, schedule: Q09DX009 (ip), vehicle: water 97 % of control

CCCCCCCCCCCCN1C(C)=CS/C1=C\C=C\c1scc(C)[n+]1CCCCCCCCCCCC
inactive: dose: 0.78 mg/kg/injection, schedule: Q01DX009 (ip), vehicle: saline with Tween-80 95 % of control | [14] 98 % of control | dose: 3.12 mg/kg/injection, schedule: Q01DX009 (ip), vehicle: saline with Tween-80 91 % of control

COc1cc(O)c2c(O)c3c(c4c2c1[C@]1(C4)C(C)=CCCC1(C)C)[C@H](O)[C@@]1(O)CC(=O)C(C(N)=O)=C(O)[C@@]1(O)C3=O
inactive: [14] 112 % of control | dose: 3.13 mg/kg/injection, schedule: Q01DX009 (ip), vehicle: saline with Tween-80 100 % of control | dose: 6.25 mg/kg/injection, schedule: Q01DX009 (ip), vehicle: saline with Tween-80 103 % of control | [15] 102 % of control

Nc1ccn(C2OC(COC(=O)C34CC5CC(CC(C5)C3)C4)C(O)C2O)c(=O)n1 (stereo not given)
inactive: [15] 116 % of control

Cc1c2ccncc2c(C)c2c1[nH]c1ccccc12
inactive: [10] 111 % of control | [11] 93 % of control | [12] 105 % of control

O=C1NC(O)CCN1C1OC(CO)C(O)C1O (stereo not given)
inactive: [4] 110 % of control | [5] 100 % of control | [16] 118 % of control | [17] 118 % of control | [18] 98 % of control | dose: 400.0 mg/kg/injection, schedule: Q01DX009 (ip), vehicle: saline 102 % of control | dose: 800.0 mg/kg/injection, schedule: Q01DX009 (ip), vehicle: saline 101 % of control

CCCCCCCCC(C)C(=O)N1CCCC1C(=O)N1C(CC(=O)CC)CC(C)CC1C(=O)NC(C)C(=O)NC(C)(C)C(=O)NC(C)(C)C(=O)NC(C(=O)NC(C)C(=O)NC(C)(C)C(=O)NC(C)(C)C(=O)NC(C)CN(C)CCO)C(C)CC (stereo not given) (X1-P[X2]A[Aib][Aib]IA[Aib][Aib]-X3; configuration not given here)
inactive: [6] 105 % of control | dose: 0.62 mg/kg/injection, schedule: Q01DX009 (ip), vehicle: Klucel (hydroxypropylcellulose) (HPC) 97 % of control | [7] 99 % of control | [8] 104 % of control | [9] 104 % of control

O[C@H](CN1CC1)[C@@H](O)CN1CC1
inactive: dose: 0.13 mg/kg/injection, schedule: Q01DX009 (ip), vehicle: saline 111 % of control | dose: 0.25 mg/kg/injection, schedule: Q01DX009 (ip), vehicle: saline 121 % of control

C/C=C(\C)c1cc(=O)c2c(C)cc3c(c2o1)C(=O)c1c(O)c(C2CC(C)(N(C)C)C(O)C(C)O2)cc(C2CC(N(C)C)C(O)C(C)O2)c1C3=O (stereo not given)
inactive: dose: 31.25 micrograms/kg/injection, schedule: Q01DX009 (ip), vehicle: saline 103 % of control | dose: 62.5 micrograms/kg/injection, schedule: Q01DX009 (ip), vehicle: saline 106 % of control | dose: 125.0 micrograms/kg/injection, schedule: Q01DX009 (ip), vehicle: saline 112 % of control | dose: 250.0 micrograms/kg/injection, schedule: Q01DX009 (ip), vehicle: saline 86 % of control

CC(C#N)(C#N)N=Nc1ccc(Cl)cc1Cl
inactive: [15] 105 % of control | dose: 25.0 mg/kg/injection, schedule: Q01DX009 (ip), vehicle: saline with Tween-80 94 % of control | dose: 50.0 mg/kg/injection, schedule: Q01DX009 (ip), vehicle: saline with Tween-80 92 % of control | [1] 103 % of control | [2] 95 % of control | [3] 101 % of control

COc1ccc(C(N)=O)cc1N=NN(C)C
inactive: dose: 3.12 mg/kg/injection, schedule: Q01DX009 (ip), vehicle: Klucel (hydroxypropylcellulose) (HPC) 95 % of control | [10] 98 % of control | [11] 118 % of control | [12] 110 % of control

CCCNc1ncnc2c1cnn2C
inactive: [4] 100 % of control | [5] 105 % of control | [16] 109 % of control

C[N+](C)(C)c1ncnc2nc[nH]c12
inactive: [16] 103 % of control | [17] 100 % of control | [18] 103 % of control

OCCNCCNc1ccnc2cc(Cl)ccc12
inactive: [4] 115 % of control | [5] 94 % of control | [16] 107 % of control | [17] 98 % of control

c1nc(N2CC2)c2cnn(C3CCCCO3)c2n1 (stereo not given)
inactive: [12] 107 % of control | [13] 100 % of control | dose: 100.0 mg/kg/injection, schedule: Q01DX009 (ip), vehicle: Klucel (hydroxypropylcellulose) (HPC) 101 % of control

O=C1CCCCC1C(=O)C(F)(F)F (stereo not given)
inactive: dose: 50.0 mg/kg/injection, schedule: Q01DX009 (ip), vehicle: saline + Tween-80 + alcohol 100 % of control
